Assay results as given in patent publication US8129398B2 (priority 2008, dated 2012).

The molecules below were run against T1, HIV-integrase (Human immunodeficiency virus type 1 group M subtype B, UniProt P12497) (assay: HIV-Integrase Inhibition Activity (SPA bead integration assay with P33 labeled target DNA)). Settings: in vitro activity, recombinant integrase, class symbols.
T1 construct: Recombinant integrase (0.26 ng) was incubated with the beads
Assay type: biochemical
Outline: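 Biotinylated substrate DNA on streptavidin SPA beads loaded with recombinant integrase (90 min, 37° C), washed, then inhibitor plus 0.1 fmol P33-labeled target DNA added. Reaction stopped with 10 mM EDTA; integration measured as CPM by scintillation, giving IC50 ranks.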

SMILES | IC50 [µM]
CC(=O)N[C@H]1c2nc(C(=O)NCc3ccc(F)cc3)c(O)c(=O)n2C[C@H]2CC[C@]1(C)C2(C)C [Example 184, (7S,10R,11R)-11-(Acetylamino)-N-(4-fluorobenzyl)-3-hydroxy-10,12,12-trimethyl-4-oxo-6,7,8,9,10,11-hexahydro-4H-7,10-methanopyrimido[1,2-a]azocine-2-carboxamide] | 0.01 to 0.1

Same assay, conditions: recombinant integrase, class symbols; read-out: in vitro activity

SMILES | IC50 [µM]
CN(C)C(=O)C(=O)NC12CCC(CCn3c1nc(C(=O)NCc1ccc(F)c(F)c1)c(O)c3=O)C2 (stereo not shown) [Example 214, Ethanediamide, N′-[2-[[[(3,4-difluorophenyl)methyl]amino]carbonyl]-7,8,9,10-tetrahydro-3-hydroxy-4-oxo-8,11-methano-4H-pyrimido[1,2-a]azocin-11(6H)-yl]-N,N-dimethyl] | < 0.01
CN(C)C(=O)C(=O)NC12CCC(CC1)Cn1c2nc(C(=O)NCCCc2ccccc2)c(O)c1=O [Example 349] | < 0.01
CN(C)C(=O)C(=O)NC12CCC(CC1)Cn1c2nc(C(=O)NCc2ccc(F)cc2Cl)c(O)c1=O [Example 118, N′-(2-((2-Chloro-4-fluorobenzyl)carbamoyl)-3-hydroxy-4-oxo-6,7,8,9-tetrahydro-7,10-ethanopyrimido[1,2-a]azepin-10(4H)-yl)-N,N-dimethylethanediamide] | < 0.01
O=C(NC12CCC(CC1)Cn1c2nc(C(=O)NCc2ccc(F)cc2)c(O)c1=O)C(=O)N1CCN(CCOCCO)CC1 [Example 75, N-(4-Fluorobenzyl)-3-hydroxy-10-(((4-(2-(2-hydroxyethoxy)ethyl)-1-piperazinyl)(oxo)acetyl)amino)-4-oxo-4,6,7,8,9,10-hexahydro-7,10-ethanopyrimido[1,2-a]azepine-2-carboxamide] | < 0.01
CN(C)S(=O)(=O)N1CCN(C(=O)C(=O)NC23CCC(CC2)Cn2c3nc(C(=O)NCc3ccc(F)cc3)c(O)c2=O)CC1 [Example 145, 10-(((4-(Dimethylsulfamoyl)-1-piperazinyl)(oxo)acetyl)amino)-N-(4-fluorobenzyl)-3-hydroxy-4-oxo-4,6,7,8,9,10-hexahydro-7,10-ethanopyrimido[1,2-a]azepine-2-carboxamide] | < 0.01
CNC(=O)NC12CCC(CC1)Cn1c2nc(C(=O)NCc2ccc(F)c(C)c2)c(O)c1=O [Example 327, 7,10-Ethanopyrimido[1,2-a]azepine-2-carboxamide, N-[(4-fluoro-3-methylphenyl)methyl]-4,6,7,8,9,10-hexahydro-3-hydroxy-10-[[(methylamino)carbonyl]amino]-4-oxo-] | < 0.01
CC(C)(O)C(=O)NC12CCC(CC1)Cn1c2nc(C(=O)NCc2ccc(F)cc2)c(O)c1=O [Example 261, 7,10-Ethanopyrimido[1,2-a]azepine-2-carboxamide, N-[(4-fluorophenyl)methyl]-4,6,7,8,9,10-hexahydro-3-hydroxy-10-[(2-hydroxy-2-methyl-1-oxopropyl)amino]-4-oxo-] | < 0.01
Cc1cnc(CNC(=O)c2nc3n(c(=O)c2O)CC2CCC3(NC(=O)C(=O)N(C)C)CC2)cn1 [Example 389] | 0.01 to 0.1
CS(=O)(=O)NC12CCC(CC1)n1c2nc(C(=O)NCc2ccc(F)cc2)c(O)c1=O [Example 13, 6,9-ethano-4H-pyrido[1,2-a]pyrimidine-2-carboxamide, N-[(4-fluorophenyl)methyl]-6,7,8,9-tetrahydro-3-hydroxy-9-[(methylsulfonyl)amino]-4-oxo-] | < 0.01
CCS(=O)(=O)N1CCCC1C(=O)NC12CCC(CC1)Cn1c2nc(C(=O)NCc2ccc(F)cc2)c(O)c1=O (stereo not shown) [Example 403] | < 0.01
CN(C(=O)C(=O)N1CC[C@@H](F)C1)C12CCC(CC1)Cn1c2nc(C(=O)NCc2ccc(F)cc2)c(O)c1=O [Example 163, N-(4-Fluorobenzyl)-10-((((3R)-3-fluoro-1-pyrrolidinyl)(oxo)acetyl)(methyl)amino)-3-hydroxy-4-oxo-4,6,7,8,9,10-hexahydro-7,10-ethanopyrimido[1,2-a]azepine-2-carboxamide] | < 0.01
Cc1cccc(S(=O)(=O)NC23CCC(CC2)Cn2c3nc(C(=O)NCc3ccc(F)cc3)c(O)c2=O)c1 [Example 391] | < 0.01
CNC(=O)c1cn(C(C)(C)C(=O)NC23CCC(CC2)Cn2c3nc(C(=O)NCc3ccc(F)c(C)c3)c(O)c2=O)nn1 [Example 286, 7,10-Ethanopyrimido[1,2-a]azepine-2-carboxamide, N-[(4-fluoro-3-methylphenyl)methyl]-4,6,7,8,9,10-hexahydro-3-hydroxy-10-[[2-methyl-2-[4-[(methylamino)carbonyl]-1H-1,2,3-triazol-1-yl]-1-oxopropyl]amino]-4-oxo-] | < 0.01
Cc1cc(CNC(=O)c2nc3n(c(=O)c2O)CC2CCC3(NC(=O)[C@H]3CCN(S(C)(=O)=O)C3)CC2)ccc1F [Example 283, 7,10-Ethanopyrimido[1,2-a]azepine-2-carboxamide, N-[(4-fluoro-3-methylphenyl)methyl]-4,6,7,8,9,10-hexahydro-3-hydroxy-10-[[[(3S)-1-(methylsulfonyl)-3-pyrrolidinyl]carbonyl]amino]-4-oxo-] | < 0.01
CN(C)C(=O)C(=O)NC12CCC(CC1)Cn1c2nc(C(=O)NCc2ccc(F)c(Cl)c2)c(O)c1=O [Example 112, N′-(2-((3-Chloro-4-fluorobenzyl)carbamoyl)-3-hydroxy-4-oxo-6,7,8,9-tetrahydro-7,10-ethanopyrimido[1,2-a]azepin-10(4H)-yl)-N,N-dimethylethanediamide] | < 0.01
CN(C)C(=O)C(=O)NC12CCC(CC1)Cn1c2nc(C(=O)NCc2ncc(F)cc2F)c(O)c1=O [Example 123, N′-(2-(((3,5-Difluoro-2-pyridinyl)methyl)carbamoyl)-3-hydroxy-4-oxo-6,7,8,9-tetrahydro-7,10-ethanopyrimido[1,2-a]azepin-10(4H)-yl)-N,N-dimethylethanediamide] | 0.01 to 0.1
CN(C)C(=O)C(=O)NC12CCC(Cn3c1nc(C(=O)NCc1ccc(F)cc1)c(O)c3=O)C2 (stereo not shown) [Example 188, Ethanediamide, N′-[2-[[[(4-fluorophenyl)methyl]amino]carbonyl]-6,7,8,9-tetrahydro-3-hydroxy-4-oxo-7,11-methanopyrimido[1,2-a]azepin-10(4H)-yl]-N,N-dimethyl-] | < 0.01
CCN(C)C(=O)C(=O)NC12CCC(CC1)Cn1c2nc(C(=O)NCc2ccc(F)cc2)c(O)c1=O [Example 101, N-Ethyl-N′-(2-((4-fluorobenzyl)carbamoyl)-3-hydroxy-4-oxo-6,7,8,9-tetrahydro-7,10-ethanopyrimido[1,2-a]azepin-10(4H)-yl)-N-methylethanediamide] | < 0.01
Cc1cc(C(=O)NC23CCC(CC2)Cn2c3nc(C(=O)NCc3ccc(F)cc3)c(O)c2=O)n(C)n1 [Example 241, 7,10-Ethanopyrimido[1,2-a]azepine-2-carboxamide, 10-[[(1,3-dimethyl-1H-pyrazol-5-yl)carbonyl]amino]-N-[(4-fluorophenyl)methyl]-4,6,7,8,9,10-hexahydro-3-hydroxy-4-oxo-] | < 0.01
Cc1cc(CNC(=O)c2nc3n(c(=O)c2O)CC2CCC3(NC(=O)c3ccccn3)CC2)ccc1F [Example 313, 7,10-Ethanopyrimido[1,2-a]azepine-2-carboxamide, N-[(4-fluoro-3-methylphenyl)methyl]-4,6,7,8,9,10-hexahydro-3-hydroxy-4-oxo-10-[(2-pyridinylcarbonyl)amino]-] | < 0.01
Cc1cc(C(=O)NC23CCC(CC2)Cn2c3nc(C(=O)NCc3ccc(F)cc3-n3ncnc3C)c(O)c2=O)no1 [Example 37, N-(4-Fluoro-2-(5-methyl-1H-1,2,4-triazol-1-yl)benzyl)-3-hydroxy-10-(((5-methyl-3-isoxazolyl)carbonyl)amino)-4-oxo-4,6,7,8,9,10-hexahydro-7,10-ethanopyrimido[1,2-a]azepine-2-carboxamide] | 0.01 to 0.1
O=C(N[C@@]12CC[C@@H](CCn3c1nc(C(=O)NCc1ccc(F)cc1)c(O)c3=O)C2)C(=O)N1CC[C@@H](F)C1 [Example 418, 8,1,1-Methano-4H-pyrimido[1,2-a]azocine-2-carboxamide, N-[(4-fluorophenyl)methyl]-11-[[2-[(3R)-3-fluoro-1-pyrrolidinyl]-1,2-dioxoethyl]amino]-6,7,8,9,10,11-hexahydro-3-hydroxy-4-oxo-, (8S,11R)—] | < 0.01
O=C(NC12CCC(CC1)Cn1c2nc(C(=O)NCc2ccc(F)cc2)c(O)c1=O)C(=O)N1CCOCC1 [Example 60, N-(4-Fluorobenzyl)-3-hydroxy-10-((4-morpholinyl(oxo)acetyl)amino)-4-oxo-4,6,7,8,9,10-hexahydro-7,10-ethanopyrimido[1,2-a]azepine-2-carboxamide] | < 0.01
CN(C)C(=O)C(=O)NC12CCC(CC1)Cn1c2nc(C(=O)NCc2ccncc2)c(O)c1=O [Example 365] | > 0.1
CS(=O)(=O)N1CC[C@H]1C(=O)NC12CCC(CC1)Cn1c2nc(C(=O)NCc2ccc(F)cc2)c(O)c1=O [Example 268, 7,10-Ethanopyrimido[1,2-a]azepine-2-carboxamide, N-[(4-fluorophenyl)methyl]-4,6,7,8,9,10-hexahydro-3-hydroxy-10-[[[(2S)-1-(methylsulfonyl)-2-azetidinyl]carbonyl]amino]-4-oxo-] | < 0.01
O=C(NC12CCC(CC1)Cn1c2nc(C(=O)NCc2ccc(F)cc2)c(O)c1=O)C(=O)N1CCC1 [Example 67, 10-((1-Azetidinyl(oxo)acetyl)amino)-N-(4-fluorobenzyl)-3-hydroxy-4-oxo-4,6,7,8,9,10-hexahydro-7,10-ethanopyrimido[1,2-a]azepine-2-carboxamide] | < 0.01
Cn1ccnc1CN1CCN(C(=O)C(=O)NC23CCC(CC2)Cn2c3nc(C(=O)NCc3ccc(F)cc3)c(O)c2=O)CC1 [Example 137, N-(4-Fluorobenzyl)-3-hydroxy-10-(((4-((1-methyl-1H-imidazol-2-yl)methyl)-1-piperazinyl)(oxo)acetyl)amino)-4-oxo-4,6,7,8,9,10-hexahydro-7,10-ethanopyrimido[1,2-a]azepine-2-carboxamide] | < 0.01
